This is an account of results in patent US20250092044A1, “Kinase Inhibitors” (Incyte Corporation, priority 2023, published 2025).

Data set [1] in a line: In Vivo Pharmacokinetics (rat). Also on record: species or system Sprague Dawley rats. Particulars: male, Sprague Dawley, plasma, PO 3.0 mg/kg. Here is the method: Test compounds were administered to male Sprague Dawley rats or male and female Cynomolgus monkeys intravenously or via oral gavage. For intravenous (IV) dosing, test compounds were dosed at 1 mg/kg using a formulation of 10% dimethylacetamide (DMAC), 10% propylene glycol (PG) in acidified saline via IV bolus for rat or 10 min IV infusion for monkey. For oral (PO) dosing, test compounds were dosed at 3.0 mg/kg using 5% DMAC in 0.5% methylcellulose in citrate buffer (PH˜2.5). Blood samples were collected at predose and various time points up to 24 hours postdose. All blood samples were collected using EDTA as the anticoagulant and centrifuged to obtain plasma samples. The plasma concentrations of test compounds were determined by LC-MS/MS methods. The measured plasma concentrations were used to calculate PK parameters by standard noncompartmental methods using Phoenix® WinNonlin software program (version 8.0, Pharsight Corporation) or similar software. In rats and monkeys, cassette dosing of test compounds were conducted to obtain preliminary PK parameters. In vivo pharmacokinetic experiments with male beagle dogs may be performed under the conditions described above.

The next data set can be described thus: FaSSIF Solubility Assay. It counts as physicochemical. Particulars: FaSSIF (fasted state simulated intestinal fluid), 25 °C, pH 6.5, fassif, thermodynamic from solid, FaSSIF pH=6.5, 25° C., read-out: Solubility Fassif. The source says: The FaSSIF (Fasted State Simulated Intestinal Fluid) solubility assay can predict how an oral drug is likely to be dissolved and potentially absorbed in the upper intestine after drinking a glass of water. FaSSIF solubility assay utilizes biorelevant intestinal media (Biorelevant, Part #FFF01) comprised of physiological surfactants, bile salts, and phospholipids that are present in the gastrointestinal fluids it mimics. FaSSIF (pH=6.5) has the average pH of a fasted intestinal fluid with similar osmolarity. The FaSSIF buffer was prepared by adding 20 mL of phosphate buffer to FaSSIF Powder. The buffer was then added to the dry compound of interest at a concentration of 1 mg/mL and then incubated at 25° C. for 24 hours in a Rototherm Plus (Part #H2024). After incubation, the Eppendorf tubes were centrifuged and run on an Agilent 1260 LC-MS. The LC-MS method is a 5 min gradient method of 2% to 95% acetonitrile with water (0.05% TFA) using a Sunfire C18, 5 um 2.1×50 mm (Part #186002539) column. A dry reference compound of interest was diluted to a known 1 mg/mL concentration in 1:1 of water and acetonitrile. Step-wise serial dilutions were performed and run on an Agilent 1260 LC-MS using the same conditions to make a standard curve. The area under the curve is reported for the compound of interest in FaSSIF buffer and the reference standards. Calculations were performed and the predicted solubility, μg/mL, was reported for compounds of the examples.

For data set [2], the target named is catalytic domain (JH1) of human JAK2 (Homo sapiens (Human), UniProt O60674). Nature of the data set: JAK2 LanthaScreen JH1 Binding Assay. As to conditions: read-out: JH1 Bind IC50. The gist of the method:
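FLAG-tagged biotinylated JH1 (aa 826-1132, baculovirus-expressed), 1.5 nM, with serially diluted compound, 50 nM fluorescent tracer and 0.5 nM streptavidin-Tb in pH 7.5 Tris buffer, 2 h at 25 °C; nonspecific binding with 2 mM ATP. TR-FRET read, IC50 by four-parameter fit.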

Data set [3] relates to STAT5 (Tyr694) phosphorylation in SET-2 cells. Nature of the data set: STAT5 (Tyr694) Phosphorylation Cell Based Assay. As to conditions: Homo sapiens, 2 hours, read-out: SET2 IC50. The method, boiled down:
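SET-2 cells in RPMI with 10% FBS were exposed to compound for 2 h at 37 °C (0.5% DMSO final). After lysis, phospho-STAT5 (Tyr694) was read by HTRF (665/620 ratio) after 24 h antibody incubation at room temperature. IC50 was fitted from percent control activity versus log concentration.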

≈ marks a conversion by molar mass, not a printed value.

Chain of catalytic domain (JH1) of human JAK2 (O60674 826-1132): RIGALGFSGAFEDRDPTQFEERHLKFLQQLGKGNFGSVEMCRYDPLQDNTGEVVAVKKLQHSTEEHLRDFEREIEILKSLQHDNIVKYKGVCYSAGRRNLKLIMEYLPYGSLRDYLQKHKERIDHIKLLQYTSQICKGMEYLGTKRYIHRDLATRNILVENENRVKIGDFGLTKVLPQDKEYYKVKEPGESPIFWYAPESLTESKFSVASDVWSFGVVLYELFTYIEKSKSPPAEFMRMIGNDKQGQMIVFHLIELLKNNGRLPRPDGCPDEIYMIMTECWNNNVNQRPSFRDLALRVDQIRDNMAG

A word on the AUC: it is the area under the concentration-time curve, a measure of exposure. Read a low AUC as low exposure. For orientation: solubility means the dissolved amount per volume that the medium holds. As usually defined, the IC50 is the point on the concentration scale where inhibition reaches its midpoint. As to `[2H]C([2H])([2H])n1ncc2cc(-c3c(-c4cn(C)nc4OC)[nH]c4ncc5c(c34)n(C3CCOCC3)c(=O)n5C)ccc21` [Comparative Example B, reference compound], the AUC in data set [1] was over 1.5 µM·h. Moreover, in the data set “FaSSIF Solubility Assay”, the solubility at 24 h was at most 50 µg/mL. For the same molecule, the IC50 in data set [2] was over 1000 nM.

In data set [1], `[2H]C([2H])([2H])N(Cc1ccc(-c2[nH]c3ncc4c(c3c2-c2ccc3c(c2)CC(C)(C)O3)n([C@@H]2CC[C@@H](NC(=O)OC)C2)c(=O)n4C([2H])([2H])[2H])cc1)C([2H])([2H])[2H]` [Example 25, Methyl ((1R,3R)-3-(7-(4-((bis(methyl-d3)amino)methyl)phenyl)-8-(2,2-dimethyl-2,3-dihydrobenzofuran-5-yl)-3-(methyl-d3)-2-oxo-3,6-dihydroimidazo[4,5-d]pyrrolo[2,3-b]pyridin-1(2H)-yl)cyclopentyl)carbamate] returned an AUC of 0.5 to 1.5 µM·h. The IC50 in data set [3] was at most 300 nM; in data set [2], over 1000 nM. The solubility at 24 h in the data set “FaSSIF Solubility Assay” is 50 to 500 µg/mL (≈ 80.9 to 809 µM).

In data set [1], `[2H]C([2H])([2H])n1c(=O)n([C@@H]2CC[C@@H](NC(=O)OC)C2)c2c3c(-c4ccc5c(cnn5C(C)C)c4)c(-c4ccc(CN(C)C)cc4)[nH]c3ncc21` [Example 26, Methyl ((1R,3R)-3-(7-(4-((dimethylamino)methyl)phenyl)-8-(1-isopropyl-1H-indazol-5-yl)-3-(methyl-d3)-2-oxo-3,6-dihydroimidazo[4,5-d]pyrrolo[2,3-b]pyridin-1(2H)-yl)cyclopentyl)carbamate] had an AUC of at most 0.5 µM·h. Moreover, the values for the IC50 in data set [3] and in data set [2] were at most 300 nM and over 1000 nM, respectively. In addition, the solubility at 24 h in “FaSSIF Solubility Assay” was over 500 µg/mL.

In data set [1], `[2H]C([2H])([2H])N(Cc1ccc(-c2[nH]c3ncc4c(c3c2-c2ccc(OCCOC)cc2)n([C@@H]2CC[C@@H](NC(=O)OC)C2)c(=O)n4C([2H])([2H])[2H])cc1)C([2H])([2H])[2H]` [Example 27, Methyl ((1R,3R)-3-(7-(4-((bis(methyl-d3)amino)methyl)phenyl)-8-(4-(2-methoxyethoxy)phenyl)-3-(methyl-d3)-2-oxo-3,6-dihydroimidazo[4,5-d]pyrrolo[2,3-b]pyridin-1(2H)-yl)cyclopentyl)carbamate] had an AUC of 0.5 to 1.5 µM·h. The IC50 in data set [3] is at most 300 nM; in data set [2] it was over 1000 nM. Further, the solubility at 24 h in the data set “FaSSIF Solubility Assay” is over 500 µg/mL.

`COC(=O)N[C@@H]1CC[C@@H](n2c(=O)n(C)c3cnc4[nH]c(-c5ccc(CN(C)C)cc5)c(-c5ccc(F)cc5)c4c32)C1` [Example 28, Methyl ((1R,3R)-3-(7-(4-((dimethylamino)methyl)phenyl)-8-(4-fluorophenyl)-3-methyl-2-oxo-3,6-dihydroimidazo[4,5-d]pyrrolo[2,3-b]pyridin-1(2H)-yl)cyclopentyl)carbamate] showed an AUC in data set [1] of 0.5 to 1.5 µM·h. Besides, the IC50 in data set [3] was 300 to 800 nM; in data set [2] it was over 1000 nM. Moreover, the solubility at 24 h in “FaSSIF Solubility Assay” is over 500 µg/mL.

On to `[2H]C([2H])([2H])N(Cc1ccc(-c2[nH]c3ncc4c(c3c2-c2ccc3c(c2)COC3(C)C)n([C@@H]2CC[C@@H](NC(=O)OC)C2)c(=O)n4C([2H])([2H])[2H])cc1)C([2H])([2H])[2H]` [Example 29, Methyl ((1R,3R)-3-(7-(4-((bis(methyl-d3)amino)methyl)phenyl)-8-(1,1-dimethyl-1,3-dihydroisobenzofuran-5-yl)-3-(methyl-d3)-2-oxo-3,6-dihydroimidazo[4,5-d]pyrrolo[2,3-b]pyridin-1(2H)-yl)cyclopentyl)carbamate], for which the AUC in data set [1] was at most 0.5 µM·h. The half-inhibitory concentration (IC50) is at most 300 nM in data set [3] and over 1000 nM in data set [2]. Besides, the solubility at 24 h in the data set “FaSSIF Solubility Assay” is over 500 µg/mL.

Consider `[2H]C([2H])([2H])n1c(=O)n([C@@H]2CC[C@@H](NC(=O)OC)C2)c2c3c(-c4ccc5c(c4)COC5(C)C)c(-c4ccc(C(=O)N(C)C)cc4)[nH]c3ncc21` [Example 30, methyl ((1R,3R)-3-(8-(1,1-dimethyl-1,3-dihydroisobenzofuran-5-yl)-7-(4-(dimethylcarbamoyl)phenyl)-3-(methyl-d3)-2-oxo-3,6-dihydroimidazo[4,5-d]pyrrolo[2,3-b]pyridin-1(2H)-yl)cyclopentyl)carbamate], for which the AUC in data set [1] was at most 0.5 µM·h. Also, the IC50 was at most 300 nM in data set [3] and over 1000 nM in data set [2].
